Assay results from patent publication US20230014352A1, “INHALED STATINS AS BRONCHODILATORS TO IMPROVE LUNG FUNCTION IN RESPIRATORY DISEASES” (priority 2019, published 2023).
“Also recorded” adds a separate entry of the source.

Assays:
ROCK-1 = test: Total ROCK-1 expression, western blot; assay type: cell-based, human; conditions: 1 μM, 24 hrs, FIG. 15C
Description: Antibodies for western blot analysis against total and phospho-MLC2 were obtained from Santa Cruz Biotechnology and Cell Signaling Technology, respectively. Antibodies for pROCK1, total ROCK1, and GAPDH were obtained from Abcam. Pitavastatin was obtained from Santa Cruz Biotechnology.
Non-asthmatic primary human ASM cells were treated with either vehicle or pitavastatin (1 μM) for 24 hours. Cells were then immuno-stained for F-actin expression. […] Cell lysates were analyzed by western blot for total ROCK-1, total ROCK-2, total MLC-2, and phosphorylated MLC-2. As shown in FIGS. 15C and 15D, pitavastatin reduced the total expression of ROCK-1, ROCK-2, and MLC-2 (total and phosphorylated).

[1] = system: primary human airway smooth muscle (ASM) cells; test: Contractile force screening (CFS), basal ASM cell contraction (strain energy); assay type: cell-based; conditions: for strain energy (ASM contraction): compared to pravastatin; for basal ASM cell contraction: FIG. 1A/1D; for reversibility of force inhibitory effect: media without Pit after treatment, FIG. 10D
Description: Primary human airway smooth muscle (ASM) cells derived from both non-asthmatic and asthmatic donors were obtained from the Gift of Hope Organ and Tissue Donor Network. These cells have been well-characterized previously (see for example H. Yoshie et al., Biophys J (2018) 114(9):2194-99). All measurements were performed using cells at passage 5-8 from three non-asthmatic donors. Cells were grown on either 10% serum-containing F12 complete media, or serum-deprived media supplemented with insulin, transferrin, and selenium (Corning, Tewksbury, Mass.). Contractile Force Screening: Human ASM cells were grown to confluence in 96-well plates on custom NuSilTM 8100 elastic substrates (Avantor, Inc., Radnor, Pa.) (R. […] Fluorescent beads (diameter 400 nm) were embedded in the substrate surface to enable traction force calculations based on their displacements. To measure fractions, an inverted epi-fluorescence microscope (DMI 6000B, Leica Inc., Germany) equipped with a heated chamber (37° C.), a monochrome camera ([…]), and a motorized stage was used. Spatial images were recorded of substrate-embedded fluorescent beads at 10× magnification. Based on the bead displacements (resolution 15 μm) relative to a cell-free model, together with knowledge of substrate stiffness and thickness, fractions were computed using the approach of Fourier Transform Traction Cytometry ([…] et al., Pharmacol Ther (2014) 143(1):87-110), modified to the case of cell monolayers ([…] et al., Cell (2007) 129(3):511-22). From each fraction map, the root-mean-squared traction (RMST) value and strain energy were calculated and reported as a measure of normal contraction in the monolayer. On a well-by-well basis, the ratio of the strain energy after vs. before treatment was computed, and all values of a given treatment group were normalized to the mean of each treatment group. Comparison of Statins: […] MA is the immediate product of HMGCR action on HMB-CoA, so addition of MA would reverse the effect of statin inhibition of HMGCR. […] Simvastatin-acid (SA), atorvastatin, pravastatin, and pitavastatin were examined with CFS to determine the dose response of the ASM relaxation effect. […] From each ASM force map, the strain energy (i.e., the energy that is imparted to the substrate by the contractile cells, in pJ) was computed, to represent the average cellular contraction.

airways of C57BL/6 mice = test: Non-inflammatory methacholine (MCh)-induced hypercontractile mouse model, airway % contraction in precision-cut lung slices; assay type: in vivo; conditions: intratracheal 5 mg/kg for 5 days, 1 hr prior to each MCh nebulization
Description: In this model, mice were administered nebulized methacholine (MCh) during postnatal maturation of ASM, which causes a hypercontractile phenotype without any induction of inflammatory responses.
All mouse experiments were approved by the Institutional Animal Care and Use Committee at Brigham & Women's Hospital, Harvard Medical School. The methacholine-induced hypercontractile mouse model has been described in K. R. Patel et al., FASEB J (2017) 31(10):4335-46. Briefly, mice (C57BL/6) were exposed to nebulized MCh (30 mg/mL) for 10 min daily between P15 and −20 (5 days). Control mice were administered nebulized normal saline. This establishes the MCh hyper-contractility asthma phenotype, a non-inflammatory model of asthmatic airway hyperresponsiveness AHR. Mice were administered intratracheal (i.t.) pitavastatin (5 mg/kg for five days) or vehicle control for 1 hour before each MCh nebulization. For airway % contraction assays, mouse precision-cut lung slices (PCLS) were stimulated to contract by increasing MCh concentrations (0.1-100 μM). For each measurement, at least n=4 mice were used from 2 independent experiments, and a total of 20-30 airways per lung.

[2] = system: bronchial airways of human PCLS; test: Histamine-induced airway constriction in human PCLS; conditions: pre-treated 24 hrs, compared to vehicle, FIG. 11C
Description: A non-transplantable non-asthmatic human donor lung was obtained through the Gift of Hope/Regional Organ Bank of Illinois, and sliced as per published protocols. Briefly, the lung lobe was filled with 1.5% low melting temperature agarose (Type IX; Sigma, St. Louis, Mo.) in Hanks balanced salt solution (pH=7.4; Invitrogen, Carlsbad, Calif.), and sliced using a VT1200S vibrating blade microtome (Leica Microsystems, Bannockburn, Ill.) to create 250 μm thick slices. Slices were cryopreserved till the day of the experiment.
Slices were treated with pitavastatin (2 μM) for 24 hrs, before challenge with histamine (1 μM). Airway constriction was measured as luminal area changes in response to increasing doses of histamine. In both sets of PCLS samples, airway lumen area was quantified from bright field images using the Fiji image analysis software.

[3] = system: primary human airway smooth muscle (ASM) cells; test: Contractile force screening (CFS), basal ASM cell contraction (strain energy); assay type: cell-based; conditions: donors D1-D6, FIG. 11A
IL6 = test: IL17/TNFα-induced IL6 peptide secretion by ASM cells; assay type: cell-based, human; conditions: 2 mM pitavastatin, 72 hrs; cytokines 18 hrs at 10 ng/mL; 10% FBS; FIG. 14B
Description: Non-asthmatic primary human ASM cells were grown to confluence and were either untreated or pre-treated with 2 mM pitavastatin and GGPP (10 mM) for a total of 72 hours. Total cytokine stimulation was for 18 hours at 10 ng/mL. […] All experiments were conducted under serum-containing media conditions (10% FBS).

[4] = 1 μM, serum-deprived media, FIG. 10B

O=C(O)C[C@H](O)C[C@H](O)/C=C/c1c(C2CC2)nc2ccccc2c1-c1ccc(F)cc1 [pitavastatin]
total (basal) expression of ROCK-1 (ROCK-1): reduced
inhibitory potency on ASM contraction, dose-response ranking ([1]; 0-10 μM, FIG. 1C, 1D): most significant effect
strain energy (ASM contraction) ([1]; 0.4 μM, 24 hours, FIG. 1C): significant reduction in strain energy
basal ASM cell contraction ([1]; 1 μM, 24 hours): potently and significantly inhibits basal ASM contraction
basal ASM cell contraction ([1]; 1 μM, 24 hours, listed as Pitavastatin): more potent
relaxation effect at 24 hrs compared to simvastatin [1, 4]: more significant at 24 hrs
relaxation effect at 24 hrs compared to simvastatin ([1]; 1 μM, serum-deprived media, FIG. 10B, listed as Pit): significantly more efficacious than Sim
ASM relaxation over time compared to simvastatin ([1]; 1 μM, all time points including 24 hours, with or without media starvation, FIG. 4C): greater ASM relaxation than simvastatin
reversibility of force inhibitory effect ([1]; 1 μM): reversible
reversibility of force inhibitory effect ([1]; 1 μM, listed as Pit): reversed
ASM contraction over time compared to control [1, 4]: reduced ASM contraction time-dependently
strain energy (ASM contraction) ([1]; 2 and 10 μM, 24 hours, FIG. 1C): significantly (and further) reduce strain energy
ASM contraction / ASM cell relaxation ([1]; FIG. 10A): inhibited ASM contraction
dose-dependent effect on ASM ([1]; primary ASM cells from three different human donors, FIG. 3): dose-dependently relax ASM
potency on basal ASM contraction relative to simvastatin ([1]; same dose, 1 μM, 24 hours, FIG. 1D): more potent than simvastatin
start of ASM relaxing effects ([1]; time-dependent effects, FIG. 4C): 4 h
% airway contraction (airways of C57BL/6 mice; FIG. 11B): 14.2%
% contraction of airways (airways of C57BL/6 mice; PCLS response to 500 nM MCh, FIG. 6): 7.3%
1 μM histamine-induced airway constriction (lumen narrowing) [2]: significantly inhibited
1 μM histamine-induced airway constriction (lumen narrowing) ([2]; listed as Pit): significantly reduced
ASM contraction in asthmatic and non-asthmatic donor cells [3]: dose-dependently inhibited ASM contraction; also recorded: inhibited ASM contraction dose-dependently
IL17/TNFα-induced IL6 peptide secretion (IL6): inhibited
